# Experimental data published in patent US10118935B2, “Melampomagnolide B dimers” (priority 2014, dated 2018).
# Assays:
# [1] = tested on: panel of 60 human cancer cell lines; assay: Five-dose growth inhibition, panel; assay type: cell-based
# SNB-19 = conditions: for GI50 / TGI: SNB-19
# K-562 = assay: NCI 60 cell line five dose, Leukemia
# SR = assay: NCI 60 cell line five dose, Leukemia
# MALME-3M = assay: NCI 60 cell line five dose, Melanoma; conditions: MALME-3M
# MDA-MB-435 = assay: NCI 60 cell line five dose, Melanoma
# SK-MEL-5 = assay: NCI 60 cell line five dose, Melanoma; conditions: SK-MEL-5
# UACC-257 = assay: NCI 60 cell line five dose, Melanoma
# UACC-62 = assay: NCI 60 cell line five dose, Melanoma
# SF-268 = assay: NCI 60 cell line five dose, CNS Cancer
# SF-539 = assay: NCI 60 cell line five dose, CNS Cancer
# COLO 205 = assay: NCI 60 cell line five dose, Colon Cancer
# HCT-116 = assay: NCI 60 cell line five dose, Colon Cancer
# HCT-15 = assay: NCI 60 cell line five dose, Colon Cancer
# KM12 = assay: NCI 60 cell line five dose, Colon Cancer
# CAKI-1 = assay: NCI 60 cell line five dose, Renal Cancer
# UO-31 = assay: NCI 60 cell line five dose, Renal Cancer
# MDA-MB-468 = assay: NCI 60 cell line five dose, Breast Cancer
# OVCAR-3 = assay: NCI 60 cell line five dose, Ovarian Cancer
# OVCAR-8 = assay: NCI 60 cell line five dose, Ovarian Cancer
# PC-3 = assay: NCI 60 cell line five dose, Prostate Cancer
# A549/ATCC = assay: NCI 60 cell line five dose, Non-Small Cell Lung Cancer
# NCI-H226 = assay: as above
# NCI-H460 = assay: as above
compound,measurement,setting,value
"C=C1C(=O)O[C@H]2[C@H]1CC/C(COC(=O)CCC(=O)NCCCCCCCCNC(=O)CCC(=O)OC/C1=C/CC[C@@]3(C)O[C@H]3[C@H]3OC(=O)C(=C)[C@@H]3CC1)=C\CC[C@@]1(C)O[C@@H]21 [JVM 2-87, bis(((1aR,7aS,10aS,10bS,E)-1a-Methyl-8-methylene-9-oxo-1a,2,3,6,7,7a,8,9,10a,1b-decahydrooxireno[2′,3′:9,10]cyclodeca[1,2-b]furan-5-yl)methyl)4,4′-(octane-1,8-diylbis(azanediyl))bis(4-oxobutanoate)]",growth inhibition (GI50),"[1]; CCRF-CEM, HL-60 (TB), K-562, SR",nanomolar range
same,growth inhibition (GI50),"[1]; NCI-H522, RXF 393, MCF7",nanomolar range
same,growth inhibition (GI50),[1]; other human tumor cell lines in the panel,low micromolar range
same,CC50,SNB-19,> 100 µM
same,GI50,SNB-19,4.15 µM
same,TGI,SNB-19,19.9 µM
same,GI50,K-562,0.97 µM
same,TGI,K-562,12.9 µM
same,GI50,SR,0.41 µM
same,TGI,SR,2.10 µM
same,GI50,MALME-3M,2.04 µM
same,TGI,MALME-3M,4.04 µM
same,GI50,MDA-MB-435,1.8 µM
same,TGI,MDA-MB-435,3.69 µM
same,GI50,SK-MEL-5,3.13 µM
same,TGI,SK-MEL-5,11.1 µM
same,GI50,UACC-257,1.76 µM
same,TGI,UACC-257,4.48 µM
same,GI50,UACC-62,1.97 µM
same,TGI,UACC-62,4.20 µM
same,GI50,SF-268,3.34 µM
same,TGI,SF-268,11.6 µM
same,GI50,SF-539,2.43 µM
same,TGI,SF-539,5.76 µM
same,GI50,COLO 205,1.35 µM
same,TGI,COLO 205,3.14 µM
same,GI50,HCT-116,1.54 µM
same,TGI,HCT-116,2.88 µM
same,GI50,HCT-15,3.6 µM
same,TGI,HCT-15,15.6 µM
same,GI50,KM12,9.46 µM
same,TGI,KM12,22.9 µM
same,GI50,CAKI-1,12.7 µM
same,TGI,CAKI-1,32.0 µM
same,GI50,UO-31,10.9 µM
same,TGI,UO-31,24.2 µM
same,GI50,MDA-MB-468,1.33 µM
same,TGI,MDA-MB-468,3.84 µM
same,GI50,OVCAR-3,1.5 µM
same,TGI,OVCAR-3,2.82 µM
same,GI50,OVCAR-8,2.9 µM
same,TGI,OVCAR-8,13.3 µM
same,GI50,PC-3,3.64 µM
same,TGI,PC-3,13.7 µM
same,CC50,PC-3; read-out: LC50,40.7 µM
same,GI50,A549/ATCC,18.5 µM
same,TGI,A549/ATCC,40.7 µM
same,GI50,NCI-H226,2.06 µM
same,TGI,NCI-H226,4.95 µM
same,GI50,NCI-H460,5 µM
same,TGI,NCI-H460,19.9 µM
"C=C1C(=O)O[C@H]2[C@H]1CC/C(COC(=O)CCC(=O)NCCCCCCCCCNC(=O)CCC(=O)OC/C1=C/CC[C@@]3(C)O[C@H]3[C@H]3OC(=O)C(=C)[C@@H]3CC1)=C\CC[C@@]1(C)O[C@@H]21 [JVM 2-92, bis(((1aR,7aS,10aS,10bS,E)-1a-Methyl-8-methylene-9-oxo-1a,2,3,6,7,7a,8,9,10a,10b-decahydrooxireno[2′,3′:9,10]cyclodeca[1,2-b]furan-5-yl)methyl)4,4′-(nonane-1,9-diylbis(azanediyl))bis (4-oxobutanoate)]",growth inhibition,"[1]; NCI-H522, SW-620, LOX IMVI, MCF7, BT-549, MDA-MB-468",nano-molar range
same,growth inhibition,[1]; all hematological leukemia cell lines,nanomolar range
same,CC50,SNB-19,> 100 µM
same,GI50,SNB-19,3.38 µM
same,TGI,SNB-19,16.3 µM
same,GI50,K-562,0.45 µM
same,TGI,K-562,3.21 µM
same,GI50,SR,0.33 µM
same,TGI,SR,1.17 µM
same,GI50,MALME-3M,1.94 µM
same,TGI,MALME-3M,4.17 µM
same,GI50,MDA-MB-435,1.63 µM
same,TGI,MDA-MB-435,3.44 µM
same,GI50,SK-MEL-5,1.88 µM
same,TGI,SK-MEL-5,4.19 µM
same,GI50,UACC-257,2.06 µM
same,TGI,UACC-257,5.59 µM
same,GI50,UACC-62,1.69 µM
same,TGI,UACC-62,3.78 µM
same,GI50,SF-268,2.92 µM
same,TGI,SF-268,10.1 µM
same,GI50,SF-539,1.85 µM
same,TGI,SF-539,4.29 µM
same,GI50,COLO 205,1.22 µM
same,TGI,COLO 205,3.16 µM
same,GI50,HCT-116,0.86 µM
same,TGI,HCT-116,2.18 µM
same,GI50,HCT-15,2.63 µM
same,TGI,HCT-15,11.9 µM
same,GI50,KM12,4.6 µM
same,TGI,KM12,17.1 µM
same,GI50,CAKI-1,10.5 µM
same,TGI,CAKI-1,22.8 µM
same,GI50,UO-31,3.9 µM
same,TGI,UO-31,16.1 µM
same,GI50,MDA-MB-468,0.98 µM
same,TGI,MDA-MB-468,2.64 µM
same,GI50,OVCAR-3,1.29 µM
same,TGI,OVCAR-3,2.61 µM
same,GI50,OVCAR-8,3.24 µM
same,TGI,OVCAR-8,16.5 µM
same,GI50,PC-3,2.53 µM
same,TGI,PC-3,7.31 µM
same,GI50,A549/ATCC,13.8 µM
same,TGI,A549/ATCC,33.7 µM
same,GI50,NCI-H226,1.9 µM
same,TGI,NCI-H226,4.05 µM
same,GI50,NCI-H460,2.18 µM
same,TGI,NCI-H460,5.17 µM
